Experimental data taken from the supplement of paper PMC4862054.

These molecules were tested on HCC1937 (assay: drug sensitivity score (DSS), CellTiter-Blue viability (DSS (AUC-based score)); higher = stronger viability inhibition; extreme values may be limits of the assay). Details: incubation time: 72 h.
Description: (§1)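 DSRT with the CellTiter-Blue (resazurin reduction) viability readout, fluorescence 560/590 nm, 72 h incubation. Plates were normalised to DMSO and benzethonium chloride controls. DSS is computed from the area under the fitted dose-response curve (5 or 9 concentrations).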

Row | SMILES | drug sensitivity score
1 | COc1cc2c(Oc3ccc(NC(=O)C4(C(=O)Nc5ccc(F)cc5)CC4)cc3F)ccnc2cc1OCCCN1CCOCC1 [Foretinib] | 0
2 | O=NN(CCCl)C(=O)NC1CCCCC1 [Lomustine] | 0
3 | O=C(O)CC[C@H]1CC[C@@](c2cc(F)ccc2F)(S(=O)(=O)c2ccc(Cl)cc2)CC1 [MK-0752] | 0
4 | NC1(c2ccc(-c3nc4ccn5c(=O)[nH]nc5c4cc3-c3ccccc3)cc2)CCC1 [MK-2206] | 0
5 | NC(=O)c1cccc2cn(-c3ccc([C@@H]4CCCNC4)cc3)nc12 [MK-4827] | 8.54
6 | N[C@@H](Cc1ccc(N(CCCl)CCCl)cc1)C(=O)O [Melphalan] | 9.6
7 | O=C(c1cc(Cc2n[nH]c(=O)c3ccccc23)ccc1F)N1CCN(C(=O)C2CC2)CC1 [Olaparib] | 11.2

Each molecule was assayed on HDQ-P1 in the same assay as above. Details: incubation time: 72 h.
Description: as §1

Row | SMILES | drug sensitivity score
8 | Cc1cc2c(F)c(Oc3ncnn4cc(OC[C@@H](C)O)c(C)c34)ccc2[nH]1 [Brivanib] | 0
9 | CC(C)C[C@H](NC(=O)[C@H](CCc1ccccc1)NC(=O)CN1CCOCC1)C(=O)N[C@@H](Cc1ccccc1)C(=O)N[C@@H](CC(C)C)C(=O)[C@@]1(C)CO1 [Carfilzomib] | 23.7
10 | Nc1nc(Cl)nc2c1ncn2[C@@H]1O[C@H](CO)[C@@H](O)[C@@H]1F [Clofarabine] | 0
11 | C[C@@H]1C[C@H]2[C@@H]3CCC4=CC(=O)C=C[C@]4(C)[C@@]3(F)[C@@H](O)C[C@]2(C)[C@@]1(O)C(=O)CO [Dexamethasone] | 0
12 | CC(C)C(=O)Nc1ccc([N+](=O)[O-])c(C(F)(F)F)c1 [Flutamide] | 0
13 | COc1cc2c(Oc3ccc(NC(=O)C4(C(=O)Nc5ccc(F)cc5)CC4)cc3F)ccnc2cc1OCCCN1CCOCC1 [Foretinib] | 4.98
14 | O=NN(CCCl)C(=O)NC1CCCCC1 [Lomustine] | 0
15 | O=C(O)CC[C@H]1CC[C@@](c2cc(F)ccc2F)(S(=O)(=O)c2ccc(Cl)cc2)CC1 [MK-0752] | 0
16 | NC1(c2ccc(-c3nc4ccn5c(=O)[nH]nc5c4cc3-c3ccccc3)cc2)CCC1 [MK-2206] | 0
17 | NC(=O)c1cccc2cn(-c3ccc([C@@H]4CCCNC4)cc3)nc12 [MK-4827] | 0
18 | N[C@@H](Cc1ccc(N(CCCl)CCCl)cc1)C(=O)O [Melphalan] | 0
19 | O=C(c1cc(Cc2n[nH]c(=O)c3ccccc23)ccc1F)N1CCN(C(=O)C2CC2)CC1 [Olaparib] | 0

The molecules below were run on MDA-MB-231 in the same assay as above. Details: incubation time: 72 h.
Description: as §1

Row | SMILES | drug sensitivity score
20 | Cc1cc2c(F)c(Oc3ncnn4cc(OC[C@@H](C)O)c(C)c34)ccc2[nH]1 [Brivanib] | 0
21 | CC(C)C[C@H](NC(=O)[C@H](CCc1ccccc1)NC(=O)CN1CCOCC1)C(=O)N[C@@H](Cc1ccccc1)C(=O)N[C@@H](CC(C)C)C(=O)[C@@]1(C)CO1 [Carfilzomib] | 25.5
22 | Nc1nc(Cl)nc2c1ncn2[C@@H]1O[C@H](CO)[C@@H](O)[C@@H]1F [Clofarabine] | 12
23 | C[C@@H]1C[C@H]2[C@@H]3CCC4=CC(=O)C=C[C@]4(C)[C@@]3(F)[C@@H](O)C[C@]2(C)[C@@]1(O)C(=O)CO [Dexamethasone] | 0
24 | CC(C)C(=O)Nc1ccc([N+](=O)[O-])c(C(F)(F)F)c1 [Flutamide] | 0
25 | COc1cc2c(Oc3ccc(NC(=O)C4(C(=O)Nc5ccc(F)cc5)CC4)cc3F)ccnc2cc1OCCCN1CCOCC1 [Foretinib] | 0
26 | O=NN(CCCl)C(=O)NC1CCCCC1 [Lomustine] | 0
27 | O=C(O)CC[C@H]1CC[C@@](c2cc(F)ccc2F)(S(=O)(=O)c2ccc(Cl)cc2)CC1 [MK-0752] | 0
28 | NC1(c2ccc(-c3nc4ccn5c(=O)[nH]nc5c4cc3-c3ccccc3)cc2)CCC1 [MK-2206] | 0
29 | NC(=O)c1cccc2cn(-c3ccc([C@@H]4CCCNC4)cc3)nc12 [MK-4827] | 0
30 | N[C@@H](Cc1ccc(N(CCCl)CCCl)cc1)C(=O)O [Melphalan] | 0
31 | O=C(c1cc(Cc2n[nH]c(=O)c3ccccc23)ccc1F)N1CCN(C(=O)C2CC2)CC1 [Olaparib] | 0

These molecules were tested on MDA-MB-436 in the same assay as above. Details: incubation time: 72 h.
Description: as §1

Row | SMILES | drug sensitivity score
32 | Cc1cc2c(F)c(Oc3ncnn4cc(OC[C@@H](C)O)c(C)c34)ccc2[nH]1 [Brivanib] | 0
33 | CC(C)C[C@H](NC(=O)[C@H](CCc1ccccc1)NC(=O)CN1CCOCC1)C(=O)N[C@@H](Cc1ccccc1)C(=O)N[C@@H](CC(C)C)C(=O)[C@@]1(C)CO1 [Carfilzomib] | 20.5
34 | Nc1nc(Cl)nc2c1ncn2[C@@H]1O[C@H](CO)[C@@H](O)[C@@H]1F [Clofarabine] | 11.8
35 | C[C@@H]1C[C@H]2[C@@H]3CCC4=CC(=O)C=C[C@]4(C)[C@@]3(F)[C@@H](O)C[C@]2(C)[C@@]1(O)C(=O)CO [Dexamethasone] | 0
36 | CC(C)C(=O)Nc1ccc([N+](=O)[O-])c(C(F)(F)F)c1 [Flutamide] | 0
37 | COc1cc2c(Oc3ccc(NC(=O)C4(C(=O)Nc5ccc(F)cc5)CC4)cc3F)ccnc2cc1OCCCN1CCOCC1 [Foretinib] | 3.35
38 | O=NN(CCCl)C(=O)NC1CCCCC1 [Lomustine] | 0
39 | O=C(O)CC[C@H]1CC[C@@](c2cc(F)ccc2F)(S(=O)(=O)c2ccc(Cl)cc2)CC1 [MK-0752] | 0
40 | NC1(c2ccc(-c3nc4ccn5c(=O)[nH]nc5c4cc3-c3ccccc3)cc2)CCC1 [MK-2206] | 2.37
41 | NC(=O)c1cccc2cn(-c3ccc([C@@H]4CCCNC4)cc3)nc12 [MK-4827] | 0
42 | N[C@@H](Cc1ccc(N(CCCl)CCCl)cc1)C(=O)O [Melphalan] | 0
43 | O=C(c1cc(Cc2n[nH]c(=O)c3ccccc23)ccc1F)N1CCN(C(=O)C2CC2)CC1 [Olaparib] | 0

These molecules were tested on MDA-MB-453 in the same assay as above. Details: incubation time: 72 h.
Description: as §1

Row | SMILES | drug sensitivity score
44 | Cc1cc2c(F)c(Oc3ncnn4cc(OC[C@@H](C)O)c(C)c34)ccc2[nH]1 [Brivanib] | 0
45 | CC(C)C[C@H](NC(=O)[C@H](CCc1ccccc1)NC(=O)CN1CCOCC1)C(=O)N[C@@H](Cc1ccccc1)C(=O)N[C@@H](CC(C)C)C(=O)[C@@]1(C)CO1 [Carfilzomib] | 27.8
46 | Nc1nc(Cl)nc2c1ncn2[C@@H]1O[C@H](CO)[C@@H](O)[C@@H]1F [Clofarabine] | 9.02
47 | C[C@@H]1C[C@H]2[C@@H]3CCC4=CC(=O)C=C[C@]4(C)[C@@]3(F)[C@@H](O)C[C@]2(C)[C@@]1(O)C(=O)CO [Dexamethasone] | 7.98
48 | CC(C)C(=O)Nc1ccc([N+](=O)[O-])c(C(F)(F)F)c1 [Flutamide] | 0
49 | COc1cc2c(Oc3ccc(NC(=O)C4(C(=O)Nc5ccc(F)cc5)CC4)cc3F)ccnc2cc1OCCCN1CCOCC1 [Foretinib] | 0
50 | O=NN(CCCl)C(=O)NC1CCCCC1 [Lomustine] | 0
51 | O=C(O)CC[C@H]1CC[C@@](c2cc(F)ccc2F)(S(=O)(=O)c2ccc(Cl)cc2)CC1 [MK-0752] | 0
52 | NC1(c2ccc(-c3nc4ccn5c(=O)[nH]nc5c4cc3-c3ccccc3)cc2)CCC1 [MK-2206] | 4.04
53 | NC(=O)c1cccc2cn(-c3ccc([C@@H]4CCCNC4)cc3)nc12 [MK-4827] | 0
54 | N[C@@H](Cc1ccc(N(CCCl)CCCl)cc1)C(=O)O [Melphalan] | 0
55 | O=C(c1cc(Cc2n[nH]c(=O)c3ccccc23)ccc1F)N1CCN(C(=O)C2CC2)CC1 [Olaparib] | 0

The molecules below were run on MDA-MB-468 in the same assay as above. Details: incubation time: 72 h.
Description: as §1

Row | SMILES | drug sensitivity score
56 | Cc1cc2c(F)c(Oc3ncnn4cc(OC[C@@H](C)O)c(C)c34)ccc2[nH]1 [Brivanib] | 0
57 | CC(C)C[C@H](NC(=O)[C@H](CCc1ccccc1)NC(=O)CN1CCOCC1)C(=O)N[C@@H](Cc1ccccc1)C(=O)N[C@@H](CC(C)C)C(=O)[C@@]1(C)CO1 [Carfilzomib] | 26.8
58 | Nc1nc(Cl)nc2c1ncn2[C@@H]1O[C@H](CO)[C@@H](O)[C@@H]1F [Clofarabine] | 12.5
59 | C[C@@H]1C[C@H]2[C@@H]3CCC4=CC(=O)C=C[C@]4(C)[C@@]3(F)[C@@H](O)C[C@]2(C)[C@@]1(O)C(=O)CO [Dexamethasone] | 0
60 | CC(C)C(=O)Nc1ccc([N+](=O)[O-])c(C(F)(F)F)c1 [Flutamide] | 0
61 | COc1cc2c(Oc3ccc(NC(=O)C4(C(=O)Nc5ccc(F)cc5)CC4)cc3F)ccnc2cc1OCCCN1CCOCC1 [Foretinib] | 0
62 | O=NN(CCCl)C(=O)NC1CCCCC1 [Lomustine] | 0
63 | O=C(O)CC[C@H]1CC[C@@](c2cc(F)ccc2F)(S(=O)(=O)c2ccc(Cl)cc2)CC1 [MK-0752] | 0
64 | NC1(c2ccc(-c3nc4ccn5c(=O)[nH]nc5c4cc3-c3ccccc3)cc2)CCC1 [MK-2206] | 2.36
65 | NC(=O)c1cccc2cn(-c3ccc([C@@H]4CCCNC4)cc3)nc12 [MK-4827] | 0
66 | N[C@@H](Cc1ccc(N(CCCl)CCCl)cc1)C(=O)O [Melphalan] | 0
67 | O=C(c1cc(Cc2n[nH]c(=O)c3ccccc23)ccc1F)N1CCN(C(=O)C2CC2)CC1 [Olaparib] | 2.78

These molecules were tested on MFM-223 in the same assay as above. Details: incubation time: 72 h.
Description: as §1

Row | SMILES | drug sensitivity score
68 | Cc1cc2c(F)c(Oc3ncnn4cc(OC[C@@H](C)O)c(C)c34)ccc2[nH]1 [Brivanib] | 0
69 | CC(C)C[C@H](NC(=O)[C@H](CCc1ccccc1)NC(=O)CN1CCOCC1)C(=O)N[C@@H](Cc1ccccc1)C(=O)N[C@@H](CC(C)C)C(=O)[C@@]1(C)CO1 [Carfilzomib] | 26.4
70 | Nc1nc(Cl)nc2c1ncn2[C@@H]1O[C@H](CO)[C@@H](O)[C@@H]1F [Clofarabine] | 0
71 | C[C@@H]1C[C@H]2[C@@H]3CCC4=CC(=O)C=C[C@]4(C)[C@@]3(F)[C@@H](O)C[C@]2(C)[C@@]1(O)C(=O)CO [Dexamethasone] | 0
72 | CC(C)C(=O)Nc1ccc([N+](=O)[O-])c(C(F)(F)F)c1 [Flutamide] | 0
73 | COc1cc2c(Oc3ccc(NC(=O)C4(C(=O)Nc5ccc(F)cc5)CC4)cc3F)ccnc2cc1OCCCN1CCOCC1 [Foretinib] | 9.7
74 | O=NN(CCCl)C(=O)NC1CCCCC1 [Lomustine] | 0
75 | O=C(O)CC[C@H]1CC[C@@](c2cc(F)ccc2F)(S(=O)(=O)c2ccc(Cl)cc2)CC1 [MK-0752] | 0
76 | NC1(c2ccc(-c3nc4ccn5c(=O)[nH]nc5c4cc3-c3ccccc3)cc2)CCC1 [MK-2206] | 4.16
77 | NC(=O)c1cccc2cn(-c3ccc([C@@H]4CCCNC4)cc3)nc12 [MK-4827] | 0
78 | N[C@@H](Cc1ccc(N(CCCl)CCCl)cc1)C(=O)O [Melphalan] | 0
